Tests used:
Type in all cases: cell-based, Pseudomonas aeruginosa
[1] = test system: P. aeruginosa strain PAR 5 biofilm; assay: Reduction of biofilm growth (percent vs culture control)
From the text: (§1) FIG. 4A represents the effect of the tested compounds (1, 2, 3 and 4) on exopolysaccharide biosynthesis in the early stages and mature P. aeruginosa biofilm formation, strain PAR 5. The abscissa represents the time (in hours) in order to differentiate early biofilm and mature biofilm, and the ordinate represents the percentage of the biofilm reduction.
(§2) Early biofilm model: formation of early biofilm under influence of the tested substances was observed by filling wells of a 96-well plate with 20 μl of P. aeruginosa suspension and 180 μl of TSB, as described above. Tested iminosugars (compounds 1, 2, 3 and 4) were added immediately after setting-up the bacteria at a final concentration of 0.9 mM. Then, the plate was gently mixed and incubated for 48 hours at 37° C.
(§3) Mature biofilm model: the tested substances were added 48 hours after adherence of bacteria to the wells in a 96-well plate. The growth conditions of P. aeruginosa were exactly the same, as described above for the early biofilm model.
(§4) The effect of the tested compounds (1, 2, 3 and 4) on the reduction of biofilm growth has also been studied on the three P. aeruginosa strains PAR 5, PAR 20, PAR 50.
(§5) (Percent decrease in biofilm thickness was obtained as a mean value from 3 consecutive measurements of the Congo Red stained biofilm using spectrophotometer after addition of the tested iminosugars in comparison to control regarded as 100%).

[2] = test system: P. aeruginosa strain PAR 50 biofilm; assay: Early biofilm model, Congo red staining; settings: for absorbance (Congo red, biofilm formation): early biofilm, 0.9 mM, 492 nm
Description: (§6) P. aeruginosa biofilm was set-up in sterile plastic 96-well plates with adherent surface (Greiner Bio-One, USA).
(§7) Twenty microliter quantities of the bacterial stock suspensions, prepared as described above, were added to each well followed with 180 μl of sterile TSB. Final concentration of the bacteria was 1×10^8 CFU/ml.
(§8) The plates were centrifuged for 10 minutes at 2000 rpm to sediment bacteria on the bottom of each well and then incubated for 72 hours (37° C., aerobic conditions).
(§9) Biofilm quantity was determined using Congo red dye according to a modified procedure described by Allison et al. (Allison G C, Sutherland I W. A staining technique for bacteria and its correlation to extracellular carbohydrate production. J Microbiol Meth 2, 93-99 (1984)).
(§10) Briefly, at different time points (0, 6, 18, 24, 48 and 72 hours), the culture medium was gently removed from wells by using the pipette and immediately 200 μl of 0.1% Congo red solution was added. The plates were left for 30 minutes at room temperature and then 10 minutes before the end of staining, the plate was centrifuged for 10 minutes at 2000 rpm and then washed twice with buffered saline to remove unbound dye. Absorbance was measured at λ=492 nm wavelength using spectrophotometer (Awarness Technology Inc., Palm City, Fla., USA). All measurements were performed in triplicates and mean values±SD are given.
as §2
(§11) Biofilm formation and the number of viable bacteria were checked in parallel in the following time intervals: 0, 0.5, 8, 24, 48 hours, in accordance with the procedure described above. Biofilm thickness was estimated by staining it with Cango Red and measuring optical density while number of viable bacteria was performed using the standard viable count method. (Allison G C, Sutherland I W. A staining technique for bacteria and its correlation to extracellular carbohydrate production. J Microbiol Meth 2, 93-99 (1984)).
(§12) P. aeruginosa suspension cultures in TSB broth alone were used as a control.

[3] = test system: P. aeruginosa strain PAR 20 biofilm; assay: Early biofilm model, Congo red staining; settings: for absorbance (Congo red, biofilm formation): early biofilm, 0.9 mM, 492 nm
Description: as §6, §7, §8, §9, §10, §2, §11, §12

[4] = test system: P. aeruginosa strain PAR 5 biofilm; assay: Early biofilm model, Congo red staining; settings: for absorbance (Congo red, biofilm formation): 0.9 mM, 492 nm
Description: as §6, §7, §8, §9, §10, §2, §11, §12

[5] = test system: P. aeruginosa strain PAR 50; assay: Number of viable bacteria in early and mature biofilm (viable count)
Description: as §11
(§13) After the addition of iminosugars (compounds 1, 2, 3 and 4), the biofilm formation and the number of viable bacteria were checked in the following time intervals: 48, 48.5, 56, 72, 96 hours.
(§14) Numbers of viable bacteria contained in the early and mature biofilm were estimated on separate plates with wells filled with tested P. aeruginosa strains as described above (PAR 5, PAR 20, PAR 50).
(§15) At the same time intervals, biofilm content in each well was removed and mixed by multiple pippeting and transferred to sterile tubes. Then decimal dilutions of the bacterial suspension were made in TSB broth, plated on McConkey Agar (Oxoid), and incubated at 37° C. for 24 hours.
(§16) Numbers of colonies grown on platter were counted and total numbers of the viable bacteria calculated as colony forming units (CFU) per ml.
(§17) The results depict logs of CFU/ml for three P. aeruginosa strains: PAR 5, PAR 20 and PAR 50 measured at different time intervals (0 hours, 8 hours, 24 hours, 48 hours, 56 hours, 72 hours and 96 hours). The detection limit is 100 CFU/ml.

[6] = test system: P. aeruginosa strain PAR 5; assay: as above
Description: as §11, §13, §14, §15, §16, §17

[7] = test system: P. aeruginosa strain PAR 20; assay: as above
Description: as §11, §13, §14, §15, §16, §17

[8] = test system: P. aeruginosa strain PAR 50 biofilm; assay: Mature biofilm model, Congo red staining; settings: for absorbance (Congo red, biofilm development): mature biofilm, compound added 48 h after induction of biofilm
Description: as §9, §10, §3, §13

[9] = test system: P. aeruginosa strain PAR 20 biofilm; assay: Mature biofilm model, Congo red staining; settings: for absorbance (Congo red, biofilm development): mature biofilm, compound added 48 h after induction of biofilm
Description: as §9, §10, §3, §13

[10] = test system: P. aeruginosa strain PAR 5 biofilm; assay: Mature biofilm model, Congo red staining; settings: for absorbance (Congo red, biofilm development): mature biofilm, compound added 48 h after induction of biofilm
Description: as §9, §10, §3, §13

[11] = test system: P. aeruginosa strain PAR 20 biofilm; assay: Reduction of biofilm growth (percent vs culture control)
From the text: as §1, with “4B” for “4A”, “20.” for “5.”
as §2, §3, §4, §5

[12] = test system: P. aeruginosa strain PAR 50 biofilm; assay: as above
From the text: as §1, with “4C” for “4A”, “50.” for “5.”
as §2, §3, §4, §5

[13] = in comparison with culture control

OCC(O)C[C@H]1NC[C@H](O)[C@H](O)[C@H]1O (stereo partly drawn) [Compound 2, β-1-C-(2,3-dihydroxypropyl)-1,5-dideoxy-1,5-imino-L-arabinitol]
reduction of biofilm growth ([1]; 8 hours of incubation): about 90%
reduction of biofilm growth ([1]; 24 hours of incubation): about 90%
reduction of biofilm growth ([1]; 48 hours of incubation): about 25%
reduction of biofilm growth ([1]; 72 hours of incubation): about 10%
effect on biofilm growth ([1]; notably an early biofilm): can reduce the biofilm growth
absorbance (Congo red, biofilm formation) ([2]; 8 hours): about 0.8 a.u.
absorbance (Congo red, biofilm formation) ([2]; 24 hours): about 0.7 a.u.
absorbance (Congo red, biofilm formation) ([2]; 48 hours): about 1.1 a.u.
effect on formation of an early biofilm [2, 13]: inhibit the formation of an early biofilm
absorbance (Congo red, biofilm formation) ([3]; 8 hours): about 0.75 a.u.
absorbance (Congo red, biofilm formation) ([3]; 24 hours): about 0.9 a.u.
absorbance (Congo red, biofilm formation) ([3]; 48 hours): about 0.9 a.u.
effect on formation of an early biofilm [3, 13]: inhibit the formation of an early biofilm
biofilm formation at 8 hours, 24 hours and 48 hours ([4]; early biofilm): no biofilm formation
absorbance (Congo red, biofilm formation) ([4]; early biofilm, 8 hours): about 0.25 a.u.
absorbance (Congo red, biofilm formation) ([4]; early biofilm, 24 hours): about 0.25 a.u.
absorbance (Congo red, biofilm formation) ([4]; early biofilm, 48 hours): about 0.25 a.u.
effect on formation of an early biofilm [4, 13]: inhibit the formation of an early biofilm
number of viable P. aeruginosa ([5]; early biofilm, 0 h): 3 × 10^7 CFU/ml
number of viable P. aeruginosa ([5]; early biofilm, 8 h): 2 × 10^8 CFU/ml
number of viable P. aeruginosa ([5]; early biofilm, 24 h): 7 × 10^8 CFU/ml
number of viable P. aeruginosa ([5]; early biofilm, 48 h): 1 × 10^8 CFU/ml
number of viable P. aeruginosa ([5]; mature biofilm, 56 h): 6 × 10^9 CFU/ml
number of viable P. aeruginosa ([5]; mature biofilm, 72 h): 1 × 10^9 CFU/ml
number of viable P. aeruginosa ([5]; mature biofilm, 96 h): 9 × 10^9 CFU/ml
number of viable P. aeruginosa ([6]; early biofilm, 0 h): 8 × 10^6 CFU/ml
number of viable P. aeruginosa ([6]; early biofilm, 8 h): 2 × 10^7 CFU/ml
number of viable P. aeruginosa ([6]; early biofilm, 24 h): 1 × 10^7 CFU/ml
number of viable P. aeruginosa ([6]; early biofilm, 48 h): 1 × 10^7 CFU/ml
number of viable P. aeruginosa ([6]; mature biofilm, 56 h): 4 × 10^8 CFU/ml
number of viable P. aeruginosa ([6]; mature biofilm, 72 h): 2 × 10^8 CFU/ml
number of viable P. aeruginosa ([6]; mature biofilm, 96 h): 5 × 10^8 CFU/ml
number of viable P. aeruginosa ([7]; early biofilm, 0 h): 2 × 10^6 CFU/ml
number of viable P. aeruginosa ([7]; early biofilm, 8 h): 4 × 10^7 CFU/ml
number of viable P. aeruginosa ([7]; early biofilm, 24 h): 3 × 10^8 CFU/ml
number of viable P. aeruginosa ([7]; early biofilm, 48 h): 1 × 10^9 CFU/ml
number of viable P. aeruginosa ([7]; mature biofilm, 56 h): 4 × 10^8 CFU/ml
number of viable P. aeruginosa ([7]; mature biofilm, 72 h): 3 × 10^7 CFU/ml
number of viable P. aeruginosa ([7]; mature biofilm, 96 h): 3 × 10^8 CFU/ml
influence on mature biofilm formation [8]: weak influence
absorbance (Congo red, biofilm development) ([8]; 48 hours): about 2.0 a.u.
absorbance (Congo red, biofilm development) ([8]; 56 hours): about 1.75 a.u.
absorbance (Congo red, biofilm development) ([8]; 72 hours): about 1.75 a.u.
absorbance (Congo red, biofilm development) ([8]; 96 hours): about 2.0 a.u.
influence on mature biofilm formation [9]: weak influence
absorbance (Congo red, biofilm development) ([9]; 48 hours): about 0.6 a.u.
absorbance (Congo red, biofilm development) ([9]; 56 hours): about 0.7 a.u.
absorbance (Congo red, biofilm development) ([9]; 72 hours): about 1.1 a.u.
absorbance (Congo red, biofilm development) ([9]; 96 hours): about 2.0 a.u.
influence on mature biofilm formation [10]: weak influence
absorbance (Congo red, biofilm development) ([10]; 48 hours): about 0.75 a.u.
absorbance (Congo red, biofilm development) ([10]; 56 hours): about 1.0 a.u.
absorbance (Congo red, biofilm development) ([10]; 72 hours): about 1.25 a.u.
absorbance (Congo red, biofilm development) ([10]; 96 hours): about 1.5 a.u.
reduction of biofilm growth ([11]; 8 hours of incubation): about 45%
reduction of biofilm growth ([11]; 24 hours of incubation): about 45%
reduction of biofilm growth ([11]; 48 hours of incubation): about 0%
reduction of biofilm growth ([11]; 72 hours of incubation): about 0%
effect on biofilm growth ([11]; notably an early biofilm): can reduce the biofilm growth
reduction of biofilm growth ([12]; 8 hours of incubation): about 50%
reduction of biofilm growth ([12]; 24 hours of incubation): about 70%
reduction of biofilm growth ([12]; 48 hours of incubation): about 0%
reduction of biofilm growth ([12]; 72 hours of incubation): about 20%
effect on biofilm growth ([12]; notably an early biofilm): can reduce the biofilm growth

Source: patent US10745395B2, “Compounds for their use as drugs for the treatment and/or the prevention of infection(s) caused by biofilm-forming bacteria” (CENTRE NATIONAL DE LA RECHERCHE SCIENTIFIQUE, priority 2014, dated 2020)
